How the values were obtained:
Human CCR5 [1] = biological target: T1, Human CCR5 (Homo sapiens, UniProt P51681); assay: CCR5 functional assay - Ca2+ mobilization in CHO K1 transfectants; type: cell-based; parameters: expressed in transfected cells
Experimental: b) CCR5 Functional Assay—Ca^2+ Mobilization
These CCR5 transfectants are used for assessing Ca^2+ mobilization in response to stimulation by the CCR5 ligands MIP-1α, MIP-1β, HCC-1(9-74) or RANTES. For the assay the cells are loaded with a Ca^2+-sensitive fluorochrome (Fluo3 or Fluo4). Ligand concentrations between 0.01-100 nM are used to induce Ca^2+ mobilization which is monitored in a fluorometer with appropriate settings.
To assess the activity of the compounds to be tested, a baseline fluorescence reading is taken after which the compounds at the desired concentration are added to the cells and fluorescence is further recorded for a certain time to assess whether compounds show agonistic effects. Next the agonist is added to the mixture and fluorescence monitored. The inhibition of Ca^2+ flux in the presence of the compounds to be tested is calculated from the inhibition of maximal fluorescence induced by the agonist. IC50 values are calculated from dose-response curves obtained with the compounds. […] For example, compounds of Example 1, 18 and 52 have an IC50 of 10, 9 and 4, respectively.

Human CCR5 [2] = biological target: T1, Human CCR5; assay: CCR5 membrane binding assay (125-I MIP-1α radioligand)
Experimental: a) CCR5 Membrane Binding Assay
Human CCR5 is used to generate stable transfectants in CHO K1 cells. Membranes prepared from these CCR5 transfectants are used In a radioligand binding assay using 125-I MIP-1α as a ligand and the compounds of formula I are tested for inhibitory activity. The data are reported as IC50, i.e. the concentration of compound required to achieve 50% inhibition of [I-125]MIP-1α binding.

T1 sequence (P51681 whole entry): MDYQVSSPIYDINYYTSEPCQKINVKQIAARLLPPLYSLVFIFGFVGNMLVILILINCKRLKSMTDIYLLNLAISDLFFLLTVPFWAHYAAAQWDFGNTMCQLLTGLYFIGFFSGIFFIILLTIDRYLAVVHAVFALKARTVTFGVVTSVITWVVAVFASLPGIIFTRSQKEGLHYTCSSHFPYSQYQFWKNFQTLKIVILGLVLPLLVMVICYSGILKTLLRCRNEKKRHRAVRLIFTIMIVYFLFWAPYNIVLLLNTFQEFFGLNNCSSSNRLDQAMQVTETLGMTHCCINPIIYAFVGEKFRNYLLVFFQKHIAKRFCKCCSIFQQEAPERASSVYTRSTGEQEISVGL

**Q.** With `Cc1cccc(C)c1C(=O)N1CCC(C)(N2CCC(N(Cc3ccccc3)c3ccc(Br)cc3)CC2)CC1` [Example 52, {4-[Benzyl-(4-bromo-phenyl)amino]-4′-methyl-[1,4′]bipiperidinyl-1′-yl}-(2,6-dimethyl-phenyl)-methanone] as the compound, how does the IC50 (Human CCR5 [1]) read?
**A.** 4 nM

**Q.** How did the IC50 (Human CCR5 [2]) turn out when `Cc1nc(CN(c2ccccc2)C2CCN(C3(C)CCN(C(=O)c4c(C)cc[n+]([O-])c4C)CC3)CC2)cs1` [Example 83, (2,4-Dimethyl-1-oxy-pyridin-3-yl)-{4′-methyl-4-[(2-methyl-thiazol-4-ylmethyl)-phenyl-amino]-[1,4′]bipiperidinyl-1′-yl}-methanone] was run?
**A.** 2 to 3 nM

**Q.** How did the IC50 (Human CCR5 [1]; CCR5-transfected CHO K1 cells, agonist MIP-1α, MIP-1β, HCC-1(9-74) or RANTES, Fluo3 or Fluo4, read-out: IC50, inhibition of Ca2+ flux) turn out when `CC1(N2CCC(N(c3ccccc3)c3ccccc3)CC2)CCN(C(=O)c2c(Cl)c[n+]([O-])cc2Cl)CC1` [Example 18] was run?
**A.** 9 nM

— patent US20040142920A1, “Bipiperidinyl-derivatives and their use as chemokine receptors inhibitors” (priority 2001, published 2004)
